Assay in all cases: relative viability (nuclei count vs DMSO), 5 days (fraction); higher = more cells survive
Compound in assay [1]: CCCS(=O)(=O)Nc1ccc(F)c(C(=O)c2c[nH]c3ncc(-c4ccc(Cl)cc4)cc23)c1F [Vemurafenib] + Nc1nc2[nH]cc(CCc3ccc(C(=O)N[C@@H](CCC(=O)O)C(=O)O)cc3)c2c(=O)[nH]1 [Pemetrexed] (partner 0.2 µM)
In short, it runs like this:
(§1)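 Lung cancer cell lines, seeded in 1536-well plates, were treated the following day by pin tool with a single drug or with five library-drug doses (not always all listed) in √10 steps on top of a fixed anchor-drug dose. Cells were fixed and nuclei stained in one step after 5 days, and nuclei were counted. Relative viability is the nuclei count for treated wells divided by that for vehicle wells, reported as medians of duplicate plates.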

Compound in assay [2]: CCCS(=O)(=O)Nc1ccc(F)c(C(=O)c2c[nH]c3ncc(-c4ccc(Cl)cc4)cc23)c1F [Vemurafenib] + N=C(N)NC(=N)NCCc1ccccc1 [Phenformin] (partner 250 µM)
The procedure, abridged: as §1

Compound in assay [3]: CCCS(=O)(=O)Nc1ccc(F)c(C(=O)c2c[nH]c3ncc(-c4ccc(Cl)cc4)cc23)c1F [Vemurafenib] + Cc1cc(Nc2cc(N3CCN(C)CC3)nc(Sc3ccc(NC(=O)C4CC4)cc3)n2)n[nH]1 [Tozasertib] (partner 0.1 µM)
The procedure, abridged:
as §1

Compound in assay [4]: COc1cccc2cc(-c3nc([C@H]4CC[C@H](C(=O)O)CC4)n4ncnc(N)c34)[nH]c12 [OSI-027] + CC(=O)c1c(C)c2cnc(Nc3ccc(N4CCNCC4)cn3)nc2n(C2CCCC2)c1=O [Palbociclib] (partner 0.5 µM)
In short, it runs like this: as §1

On to NCI-H1395, for which the relative viability in assay [1] (first compound 0.03162 µM) was 0.679; in assay [1] (first compound 0.1 µM) it was 0.744; in assay [1] (first compound 0.3162 µM), 0.757; in assay [1] (first compound 1 µM) it was 0.814; in assay [2] (first compound 0.03162 µM), 0.425; in assay [2] (first compound 0.1 µM), 0.433. The relative viability in assay [2] (first compound 1 µM) was determined as 0.495; in assay [3] (first compound 0.03162 µM) it was 0.722; in assay [3] (first compound 0.1 µM), 0.815; in assay [3] (first compound 1 µM), 0.779; in assay [4] (first compound 0.01 µM), 0.654; in assay [4] (first compound 0.03162 µM) it was 0.609. Also, the figures for the relative viability in assay [4] (first compound 0.1 µM), in assay [4] (first compound 0.3162 µM) and in assay [4] (first compound 1 µM) were 0.529, 0.45 and 0.505, respectively.

As to NCI-H2023, the relative viability in assay [1] (first compound 0.03162 µM) worked out at 0.229; in assay [1] (first compound 0.1 µM), 0.2; in assay [1] (first compound 0.3162 µM), 0.207; in assay [1] (first compound 1 µM), 0.278; in assay [2] (first compound 0.03162 µM), 0.376; in assay [2] (first compound 0.1 µM), 0.381. For the same cell line, the relative viability stood at 0.378 in assay [2] (first compound 0.3162 µM); 0.354 in assay [2] (first compound 1 µM); 0.335 in assay [3] (first compound 0.03162 µM); 0.241 in assay [3] (first compound 0.1 µM); 0.273 in assay [3] (first compound 0.3162 µM); 0.18 in assay [3] (first compound 1 µM). Further, the relative viability was 0.36 in assay [4] (first compound 0.01 µM); 0.326 in assay [4] (first compound 0.03162 µM); 0.249 in assay [4] (first compound 0.1 µM); 0.22 in assay [4] (first compound 0.3162 µM); 0.161 in assay [4] (first compound 1 µM).

Regarding ChaGo-K-1, the relative viability in assay [1] (first compound 0.03162 µM) is 0.247; in assay [1] (first compound 0.1 µM), 0.267; in assay [1] (first compound 0.3162 µM) it was 0.261; in assay [1] (first compound 1 µM) it was 0.274; in assay [2] (first compound 0.03162 µM), 0.472; in assay [2] (first compound 0.1 µM), 0.545. Besides, the relative viability in assay [2] (first compound 0.3162 µM) is 0.352; in assay [2] (first compound 1 µM), 0.481; in assay [3] (first compound 0.03162 µM) it was 0.22; in assay [3] (first compound 0.1 µM) it was 0.195; in assay [3] (first compound 0.3162 µM), 0.257; in assay [3] (first compound 1 µM) it was 0.204. Moreover, the relative viability worked out at 0.946 in assay [4] (first compound 0.01 µM); 0.942 in assay [4] (first compound 0.03162 µM); 0.904 in assay [4] (first compound 0.1 µM); 0.87 in assay [4] (first compound 0.3162 µM); 0.774 in assay [4] (first compound 1 µM).

With NCI-H1944, the relative viability was determined as 0.596 in assay [1] (first compound 0.03162 µM); 0.564 in assay [1] (first compound 0.3162 µM); 0.569 in assay [1] (first compound 1 µM); 0.206 in assay [2] (first compound 0.03162 µM); 0.18 in assay [2] (first compound 0.1 µM); 0.122 in assay [2] (first compound 0.3162 µM). Moreover, the relative viability amounted to 0.191 in assay [2] (first compound 1 µM); 0.268 in assay [3] (first compound 0.03162 µM); 0.201 in assay [3] (first compound 0.1 µM); 0.274 in assay [3] (first compound 0.3162 µM); 0.256 in assay [3] (first compound 1 µM); 0.336 in assay [4] (first compound 0.01 µM). Moreover, the relative viability in assay [4] (first compound 0.03162 µM) was 0.3; in assay [4] (first compound 0.1 µM), 0.327; in assay [4] (first compound 0.3162 µM) it was 0.234; in assay [4] (first compound 1 µM), 0.205.

H3255: the relative viability in assay [1] (first compound 0.03162 µM) was determined as 0.551; in assay [1] (first compound 0.3162 µM), 0.515; in assay [1] (first compound 1 µM), 0.566; in assay [2] (first compound 0.03162 µM) it was 0.3; in assay [2] (first compound 0.3162 µM) it was 0.342; in assay [2] (first compound 1 µM), 0.332. Also, the relative viability in assay [3] (first compound 0.03162 µM) amounted to 0.603; in assay [3] (first compound 0.3162 µM) it was 0.644; in assay [3] (first compound 1 µM), 0.619; in assay [4] (first compound 0.01 µM), 0.294; in assay [4] (first compound 0.03162 µM), 0.309; in assay [4] (first compound 0.1 µM), 0.303. In addition, the relative viability in assay [4] (first compound 0.3162 µM) is 0.271; in assay [4] (first compound 1 µM), 0.321.

NCI-H2087: the relative viability came to 0.646 in assay [1] (first compound 0.03162 µM); 0.63 in assay [1] (first compound 0.1 µM); 0.544 in assay [1] (first compound 0.3162 µM); 0.678 in assay [1] (first compound 1 µM); 0.438 in assay [2] (first compound 0.03162 µM); 0.402 in assay [2] (first compound 0.1 µM). Further, the relative viability in assay [2] (first compound 1 µM) was 0.467; in assay [3] (first compound 0.03162 µM), 0.249; in assay [3] (first compound 0.1 µM), 0.236; in assay [3] (first compound 1 µM), 0.132; in assay [4] (first compound 0.01 µM), 0.261; in assay [4] (first compound 0.03162 µM), 0.169. The relative viability in assay [4] (first compound 0.1 µM) came out at 0.207; in assay [4] (first compound 0.3162 µM) it was 0.195; in assay [4] (first compound 1 µM) it was 0.142.

In the case of RERF-LC-KJ, the relative viability in assay [1] (first compound 0.03162 µM) was 0.501; in assay [1] (first compound 0.1 µM) it was 0.486; in assay [1] (first compound 0.3162 µM), 0.441; in assay [1] (first compound 1 µM) it was 0.48; in assay [2] (first compound 0.03162 µM), 0.428; in assay [2] (first compound 0.1 µM), 0.408. Moreover, the relative viability is 0.398 in assay [2] (first compound 0.3162 µM); 0.498 in assay [2] (first compound 1 µM); 0.486 in assay [3] (first compound 0.03162 µM); 0.487 in assay [3] (first compound 0.1 µM); 0.415 in assay [3] (first compound 0.3162 µM); 0.397 in assay [3] (first compound 1 µM). Moreover, the relative viability was determined as 1.07 in assay [4] (first compound 0.01 µM); 0.957 in assay [4] (first compound 0.03162 µM); 0.99 in assay [4] (first compound 0.1 µM); 0.817 in assay [4] (first compound 0.3162 µM); 0.457 in assay [4] (first compound 1 µM).

Take NCI-H2228: the relative viability in assay [1] (first compound 0.03162 µM) is 0.315; in assay [1] (first compound 0.1 µM), 0.321; in assay [1] (first compound 0.3162 µM), 0.391; in assay [1] (first compound 1 µM), 0.323; in assay [2] (first compound 0.03162 µM), 0.376; in assay [2] (first compound 0.1 µM), 0.298. Also, the relative viability in assay [2] (first compound 0.3162 µM) worked out at 0.302; in assay [2] (first compound 1 µM), 0.267; in assay [3] (first compound 0.03162 µM), 0.228; in assay [3] (first compound 0.1 µM), 0.234; in assay [3] (first compound 0.3162 µM), 0.244; in assay [3] (first compound 1 µM), 0.21. Further, the relative viability in assay [4] (first compound 0.01 µM) stood at 0.65; in assay [4] (first compound 0.03162 µM), 0.638; in assay [4] (first compound 0.1 µM), 0.849; in assay [4] (first compound 0.3162 µM), 0.75; in assay [4] (first compound 1 µM) it was 0.383.

Values taken from the supplement of paper PMC10307832.
